For orientation: MIC means the lowest concentration that inhibits growth of the organism.

The structures appear in SMILES notation. ≈ marks a conversion by molar mass, not a printed value.

What all share (assay type): cell-based
Test [1] deals with organisms resistant to the parent compound. In words: activity against organisms resistant to the 1-N-unsubstituted parent compounds. As to conditions: organisms resistant to the 1-N-unsubstituted precursors. The text has this:
(§1) Particularly useful compounds of our invention are those wherein X is a lower alkyl having up to 8 carbon atoms, particularly those having up to 4 carbon atoms, e.g. compounds of formulae I, II, III, IV, and V wherein X is methyl, ethyl, n-propyl or n-butyl.

The subject of test [2] is gram positive bacteria and gram negative bacteria. Kind of test: antibacterial activity (standard dilution tests). Particulars: versus parent antibiotic.
From the text: as §1

The test system of a further test is Escherichia coli. Kind of test: in vitro minimal inhibitory concentration, standard tube dilution method in Mueller-Hinton broth. An excerpt: In Table 1, set forth below is shown the in vitro minimal inhibitory concentration (MIC) of gentamicin C2a against representative gram-positive gram-negative bacteria. The results are derived using the standard tube dilution method in Mueller-Hinton broth.
In Table 2, set forth below is shown the in vitro minimal inhibitory concentration (MIC) of gentamicin C2b against representative gram-positive and gram-negative bacteria. The results are derived using the standard tube dilution method in Mueller-Hinton broth.

A further test relates to bacteria. Kind of test: antibacterial activity and spectrum compared with the gentamicins.

Turning to `CCCN[C@@H]1C[C@H](N)[C@@H](O[C@H]2OC(CN)=CC[C@H]2N)[C@H](O)[C@H]1O[C@H]1OC[C@](C)(O)[C@H](NC)[C@H]1O` [1-N-(n-propyl) sisomicin, 1-N-(n-propyl)sisomicin], the “activity against resistant organisms” value in test [1] is on record as “exhibit activity against gram negative organisms which are resistant to their 1-N-unsubstituted precursors”. Regarding `CCCN[C@@H]1C[C@H](N)[C@@H](O[C@H]2OC(C(C)N)=CC[C@H]2N)[C@H](O)[C@H]1O[C@H]1OC[C@](C)(O)[C@H](NC)[C@H]1O` (stereo partly shown) [1-N-(n-propyl) verdamicin, 1-N-(n-propyl)verdamicin], the “activity against resistant organisms” value in test [1] is “exhibit activity against gram negative organisms which are resistant to their 1-N-unsubstituted precursors”. On the same count and under the same terms, the result for `CN[C@@H]1[C@@H](O)[C@@H](O[C@@H]2[C@@H](O)[C@H](O[C@H]3OC(CN)=CC[C@H]3N)[C@@H](N)C[C@H]2NCCCCN)OC[C@]1(C)O` [1-N-(δ-aminobutyl) sisomicin, 1-N-(δ-aminobutyl)sisomicin] reads “exhibit activity against gram negative organisms which are resistant to their 1-N-unsubstituted precursors”; that for `CN[C@@H]1[C@@H](O)[C@@H](O[C@@H]2[C@@H](O)[C@H](O[C@H]3OC(C(C)N)=CC[C@H]3N)[C@@H](N)C[C@H]2NCCCCN)OC[C@]1(C)O` (stereo partly shown) [1-N-(δ-aminobutyl) verdamicin, 1-N-(δ-aminobutyl)veradamicin], “exhibit activity against gram negative organisms which are resistant to their 1-N-unsubstituted precursors”. In the case of `CCN[C@@H]1C[C@H](N)[C@@H](O[C@H]2OC(CN)=CC[C@H]2N)[C@H](O)[C@H]1O[C@H]1OC[C@](C)(O)[C@H](NC)[C@H]1O` [1-N-ethylsisomicin], the “antibacterial activity compared to the parent antibiotics” value in test [2] was “enhanced antibacterial activity”. The “activity against resistant organisms” value in test [1] is “exhibit activity against gram negative organisms which are resistant to their 1-N-unsubstituted precursors”. As to `CCN[C@@H]1C[C@H](N)[C@@H](O[C@H]2OC(C(C)N)=CC[C@H]2N)[C@H](O)[C@H]1O[C@H]1OC[C@](C)(O)[C@H](NC)[C@H]1O` (stereo partly shown) [1-N-ethylverdamicin], the “activity against resistant organisms” value in test [1] is “exhibit activity against gram negative organisms which are resistant to their 1-N-unsubstituted precursors”. For `CN[C@@H]1[C@@H](O)[C@@H](O[C@@H]2[C@@H](O)[C@H](O[C@H]3O[C@H]([C@H](C)N)CC[C@H]3N)[C@@H](N)C[C@H]2N)OC[C@]1(C)O` [gentamicin C2a], it took 17.5 µg/mL (≈ 37.8 µM) to inhibit growth with Escherichia coli (MIC). Besides, the “activity relative to the gentamicin C complex” value with bacteria (as the free base, of the activity of the gentamicin C complex) is listed as “about 74%”. Besides, the “antibacterial spectrum in vitro” value in the test with bacteria (compared with gentamicin C1, C1a and C2) is “substantially the same antibacterial spectrum in vitro as do gentamicin C1, C1a, and C2”.

For the origin of these results see patent US4002742A, “1-N-alkyl-4,6-di-(aminoglycosyl)-1,3-diaminocyclitols, methods for their manufacture, methods for their use as antibacterial agents, and compositions useful therefor” (priority 1974, dated 1977).
